Experimental data reported in US20260132128A1, “COMPOUND FOR RECOVERING P53 MUTATION FUNCTION AND USE THEREOF” (SHENZHEN ZHONGGE BIOLOGICAL TECHNOLOGY CO., LTD., priority 2022, published 2026).
Marks after values point to notes of the source that are not given here.

Legend:
NUGC-3 cells = experiment: NUGC-3 cell proliferation assay (CTG); assay type: cell-based, human; details: for GI50: 6 days, CTG; for Compound GI50 (nM)/Reference compound GI50 (nM): multiple ratio of GI50 of the compound to the reference compound
Experimental: In order to detect the inhibitory effect of the aforementioned compounds on the proliferation ability of NUGC-3 cells, 250 NUGC-3 cells (Nanjing Cobioer Biosciences Co., Ltd., CBP60492) were seeded into a 384-well plate (Corning 3765), 35 μL per well, and incubated overnight in a constant temperature incubator at 37° C. and 5% CO2. Then, 40 nL of the compound was added to the 384-well plate using an Echo 655 Liquid Handler, with a maximum final concentration of 10 μM, 1:3 serial dilutions, and a total of 10 doses. The culture was performed at 37° C. and 5% CO2 for 6 days. The plate was taken out from the incubator and equilibrated at room temperature for 10 minutes. 20 μL of CTG (Promage G7572) was added to each well of the plate according to the platemap. The plate was centrifuged at 1000 rpm for 1 min. The lysis of cells was induced by mixing on a shaker for 2 min. The plate was centrifuged at 1000 rpm for 1 min. Incubation was performed at room temperature for 10 min to stabilize luminescence signals. Luminescence values were recorded by Envision (PerkinElmer 2105-0020). GraphPad 9.0 was used to fit the inhibition rate and compound concentration into a nonlinear regression curve (dose response-variable slope) to calculate GI50, inhibition rate={1−(A−B)/(C−B)}*100%, A=signal value of compound; B=average signal of blank control; C=average signal of negative control (wherein negative control was 0.1% DMSO).

p53 Y220C [1] = target: T1, p53 Y220C (Homo sapiens, UniProt P04637, P309S/R273H/Y220C); experiment: DNA binding test (HTRF): binding of P53Y220C protein to DNA; assay type: biochemical; details: HTRF, activation of p53 Y220C (aa 94-312) binding to biotin DNA
T1 construct: a truncated mutant containing only amino acids 94-312 of p53; made in house; host or cells: E. coli
Experimental: (§1) In order to detect the ability of the aforementioned compounds to increase the binding of P53Y220C protein to DNA, the binding activity of p53 Y220C was measured by homogeneous time-resolved fluorescence (HTRF). Recombinant His-tagged p53 Y220C for HTRF measurement was expressed in bacteria E. coli. The recombinant protein was a truncated mutant containing only amino acids 94-312 of p53, and its sequence was […] […] VEGNLR […] TFRh[…] […]. The sense strand of the DNA double strand was 5′-[…]-3′, with a biotin tag at the 5′ end for activity assay, and the antisense strand was 5′-[…]-3′ 40 mL of assay buffer (20 mM Tris HCL, pH 7.5, 50 mM NaCl, 2 mM MgCl2, 0.02% Tween 20, 0.01% BSA, 1 mM DTT) was prepared. 10 mM compound was prepared and subjected to 3-fold dilution to obtain 10 dose gradient dilutions of the compound. 20 nL of the compound was added to a 384-well assay plate (PerkinElmer 6007299) using an Echo 655 Liquid Handler. P53Y220C protein was dissolved in assay buffer to reach a final concentration of 150 nM, and 5 μL thereof was added to each well, and incubated at room temperature for 5 min. DNA was dissolved in assay buffer to reach a final concentration of 150 nM, and 5 μL thereof was added to each well, and incubated at room temperature for 15 min. Anti 6HIS-XL665 (Cisbio 61HISXLB) was dissolved in assay buffer to reach a final concentration of 20 nM, and 5 μL thereof was added to each well. Streptavidin-Eu cryptate (Cisbio 610SAKLA) was dissolved in assay buffer to reach a final concentration of 0.625 nM, and 5 μL thereof was added to each well, and incubated at 27° C. for 1 hour. The plate was then read for signal values on an Envision (PerkinElmer 2105-0020) plate reader at 665 nm and 615 nm, respectively. […] Activation rate={(A-C)/(C)}*100%, A=(signal value at 665 nm/signal value at 615 nm); C=average signal of negative control (wherein, negative control referred to 0.1% DMSO).

p53 Y220C [2] = target: T2, p53 Y220C (Homo sapiens, UniProt P04637, Y220C); experiment: as above; assay type: biochemical; details: multiple ratio of EC50 of the compound to the reference compound, DNA binding test
T2 construct: a truncated mutant containing only amino acids 94-312 of p53; made in house; host or cells: E. coli
Experimental: as §1

SMILES	EC50 (p53 Y220C [1]) [nM]	GI50 (NUGC-3 cells) [nM]	Compound GI50 (nM)/Reference compound GI50 (nM) (NUGC-3 cells)	Compound EC50 (nM)/Reference compound EC50 (nM) (p53 Y220C [2])	GI50 (NUGC-3 cells; Homo sapiens, NUGC-3, 144 h) [nM]
COc1cc(S(=N)(=O)C2CC2)ccc1NCC#Cc1cc2c(NC3CCN(C)CC3F)cccc2n1CC(F)(F)F (single isomer, unassigned) [Compound 39c]	< 100		A (A: GI50 of the compound ≤ GI50 of the reference compound)	B (B: EC50 of the reference compound<EC50 of the compound≤3.0*EC50 of the reference compound)	
COc1cc(S(=N)(=O)C2CC2)ccc1NCC#Cc1cc2c(NC3CCN(C)CC3F)cccc2n1CC(F)(F)F (single isomer, unassigned) [Compound 39d]	< 100		A (A: GI50 of the compound ≤ GI50 of the reference compound)	A (A: EC50 of the compound≤EC50 of the reference compound)	
CNC(=O)c1ccc(NCC#Cc2nc3c(NC4CCN(C)CC4)cncn3c2CC(F)(F)F)c(OC)c1 [Compound 2]	≥ 1000		C (C: GI50 of the compound ≥ 3 * GI50 of the reference compound)	C (C: EC50 of the compound≥3*EC50 of the reference compound)	
COc1cc(C#N)ccc1NCC#Cc1nc2c(NC3CCN(C)CC3)cccn2c1CC(F)(F)F [Compound 11]	100 to 500		C (C: GI50 of the compound ≥ 3 * GI50 of the reference compound)	B (B: EC50 of the reference compound<EC50 of the compound≤3.0*EC50 of the reference compound)	
COc1cc(S(N)(=O)=O)ccc1NCC#Cc1nc2c(NC3CCN(C)CC3)cccn2c1CC(F)(F)F [Compound 12]	100 to 500		C (C: GI50 of the compound ≥ 3 * GI50 of the reference compound)	B (B: EC50 of the reference compound<EC50 of the compound≤3.0*EC50 of the reference compound)	≥ 5000
COc1cc(S(C)(=N)=O)ccc1NCC#Cc1nc2c(NC3CCN(C)CC3)cccn2c1CC(F)(F)F (centres unmarked) [Compound 15]	100 to 500		C (C: GI50 of the compound ≥ 3 * GI50 of the reference compound)	C (C: EC50 of the compound≥3*EC50 of the reference compound)	< 1000
COc1cc(-c2nccs2)ccc1NCC#Cc1nc2c(NC3CCN(C)CC3)cccn2c1CC(F)(F)F [Compound 16]	100 to 500		C (C: GI50 of the compound ≥ 3 * GI50 of the reference compound)	C (C: EC50 of the compound≥3*EC50 of the reference compound)	≥ 5000
CN1CCC(Nc2cccn3c(CC(F)(F)F)c(-c4noc(CNC(=O)c5ccn(C(C)(C)C)c5)n4)nc23)CC1 [Compound 17]	500 to 1000		C (C: GI50 of the compound ≥ 3 * GI50 of the reference compound)	C (C: EC50 of the compound≥3*EC50 of the reference compound)	
CNC(=O)c1ccc(NCc2nnc(-c3nc4c(NC5CCN(C)CC5)cccn4c3CC(F)(F)F)s2)c(OC)c1 [Compound 18]	100 to 500		C (C: GI50 of the compound ≥ 3 * GI50 of the reference compound)	C (C: EC50 of the compound≥3*EC50 of the reference compound)	1000 to 5000
CN1CCC(Nc2cccn3c(CC(F)(F)F)c(-c4nnc(CNC(=O)c5ccn(C(C)(C)C)c5)s4)nc23)CC1 [Compound 19]	100 to 500		C (C: GI50 of the compound ≥ 3 * GI50 of the reference compound)	B (B: EC50 of the reference compound<EC50 of the compound≤3.0*EC50 of the reference compound)	≥ 5000

The next lines start with results.

EC50 (p53 Y220C [1]) [nM]	SMILES	GI50 (NUGC-3 cells) [nM]	Compound GI50 (nM)/Reference compound GI50 (nM) (NUGC-3 cells)	Compound EC50 (nM)/Reference compound EC50 (nM) (p53 Y220C [2])	GI50 (NUGC-3 cells; Homo sapiens, NUGC-3, 144 h) [nM]
< 100	CNC(=O)c1ccc(NCC#Cc2nc3c(NC4CCC(N5CC6(COC6)C5)CC4F)cccn3c2CC(F)(F)F)c(OC)c1 (single isomer, unassigned) [Compound 35-6f]	1000 to 5000	C (C: GI50 of the compound ≥ 3 * GI50 of the reference compound)	B (B: EC50 of the reference compound<EC50 of the compound≤3.0*EC50 of the reference compound)	
100 to 500	CNC(=O)c1ccc(NCC#Cc2nc3c(NC4CCC(N5CC6(COC6)C5)CC4F)cccn3c2CC(F)(F)F)c(OC)c1 (single isomer, unassigned) [Compound 35-6g]	≥ 5000	C (C: GI50 of the compound ≥ 3 * GI50 of the reference compound)	C (C: EC50 of the compound≥3*EC50 of the reference compound)	
< 100	CNC(=O)c1ccc(NCC#Cc2nc3c(NC4CCC(N5CC6(COC6)C5)CC4F)cccn3c2CC(F)(F)F)c(OC)c1 (single isomer, unassigned) [Compound 35-6h]	1000 to 5000	C (C: GI50 of the compound ≥ 3 * GI50 of the reference compound)	B (B: EC50 of the reference compound<EC50 of the compound≤3.0*EC50 of the reference compound)	
< 100	CNC(=O)c1ccc(NCC#Cc2nc3c(NC4CCC(N5CC6(COC6)C5)CC4F)cccn3c2CC(F)(F)F)c(OC)c1 (single isomer, unassigned) [Compound 35-6j]	< 1000	C (C: GI50 of the compound ≥ 3 * GI50 of the reference compound)	C (C: EC50 of the compound≥3*EC50 of the reference compound)	
< 100	[2H]C([2H])([2H])NC(=O)c1ccc(NCC#Cc2cc3c(NC4CCC(N5CCOCC5)CC4F)cccn3c2CC(F)(F)F)c(OC([2H])([2H])[2H])c1 (single isomer, unassigned) [Compound 73d]		A (A: GI50 of the compound ≤ GI50 of the reference compound)	B (B: EC50 of the reference compound<EC50 of the compound≤3.0*EC50 of the reference compound)	< 1000
100 to 500	CNC(=O)c1ccc(NCC#Cc2nc3c(NC4CCC(F)(F)CC4)cccn3c2CC(F)(F)F)c(OC)c1 [Compound 6]		C (C: GI50 of the compound ≥ 3 * GI50 of the reference compound)	C (C: EC50 of the compound≥3*EC50 of the reference compound)	≥ 5000
100 to 500	CNC(=O)c1ccc(NCC#Cc2nc3c(NC4CCN(CC(O)COC)CC4)cccn3c2CC(F)(F)F)c(OC)c1 (centres unmarked) [Compound 7]		C (C: GI50 of the compound ≥ 3 * GI50 of the reference compound)	C (C: EC50 of the compound≥3*EC50 of the reference compound)	1000 to 5000
100 to 500	CNC(=O)c1ccc(NCC#Cc2nc3c(NC4CCN(C)CC4)cccn3c2CC(F)(F)F)c(F)c1 [Compound 13]		C (C: GI50 of the compound ≥ 3 * GI50 of the reference compound)	B (B: EC50 of the reference compound<EC50 of the compound≤3.0*EC50 of the reference compound)	1000 to 5000
100 to 500	COc1cc(P(C)(C)=O)ccc1NCC#Cc1nc2c(N[C@@H]3CCN(C)C[C@@H]3F)cccn2c1CC(F)(F)F [Compound 14]		B (B: GI50 of the reference compound < GI50 of the compound ≤ 3.0 * GI50 of the reference compound)	B (B: EC50 of the reference compound<EC50 of the compound≤3.0*EC50 of the reference compound)	1000 to 5000
